Data reported in US9078805B2, “Method for producing a drug delivery system on the basis of polyelectrolyte complexes” (LEIBNIZ-INSTITUT FUER POLYMER-FORSCHUNG DRESDEN E.V., priority 2010, dated 2015).

Test: Release of the bisphosphonate and stability of the PEC carrier layer on a germanium model substrate, measured via spectroscopic methods
Format: physicochemical
Conditions: after 1 minute; layer applied and dried on the same germanium model substrate
Experimental: 50 microliter of this drug-loaded PEC dispersion was brushed onto an inorganic planar model substrate of germanium and dried in the drying oven at 50° C. The measurement of the release of the bisphosphonate and the stability of the PEC carrier layer was carried out via spectroscopic methods. After 24 hours a relative reduction of the bisphosphonate content of the PEC/drug layer of approximately 50% resulted. […] For a layer of the pure bisphosphonate applied and dried on the same model substrate as in the case of PEC/drug, after 1 minute an immediate detachment and thus a relative reduction of the bisphosphonate content of approximately 100% resulted.

## NCCC(O)(P(=O)(O)O)P(=O)(O)O [pure bisphosphonate, pamidronate]
  relative reduction of the bisphosphonate content (immediate detachment): approximately 100%
